Source: paper PMC9728307 (Journal of Microbiology and Biotechnology, 2020)
Counter-ions that a name gives are not always drawn. Like-named read-outs stand apart in the source and are kept apart here. *1 amine or outer side, *2 acyl side, *3 side chain or, on linkers, in order; H or OH if unused. Where a SMILES comes first, the peptide text is derived from it. Bridges are numbered along the chain shown (N, C = ends). [ ]: non-standard residue; d: D form. The star is where a group is joined. hTyr(3S-OH,4S-OH,3'-OSO3H) = N[C@H](C(=O)O)[C@H](O)[C@@H](O)c1ccc(O)c(OS(=O)(=O)O)c1; Orn(4R-OH,5R-OH) = O=C([C@H](C[C@@H](O)[C@@H](O)N[*:3])N[*:1])[*:2]; Pro(3S-OH,4S-Me) = C[C@H]1CN[C@H](C(=O)O)[C@H]1O; X1 = CCCCCOc1ccc(-c2cc(-c3ccc(C(=O)*)cc3)no2)cc1; Gln(3R-OH) = NC(=O)C[C@@H](O)[C@H](N)C(=O)O; Hyp = O=C(O)[C@@H]1C[C@@H](O)CN1

Tests used:
SARS-CoV-2 [1] = type: cell-based; conditions: Vero cells, 20 μM, MOI 0.5, three days after infection, microscopic observation
in vitro = conditions: African green monkey, CC50 cell toxicity
SARS-CoV-2 [2] = experiment: microbe, parasite or virus in culture; type: cell-based; conditions: for Selectivity Index (SI): CC50/IC50
SARS-CoV-2 [3] = experiment: Viral RNA by real-time RT-PCR with primer sets specific to N gene; type: cell-based; conditions: virus-infected cells treated with drug
Method: Bromhexine hydrochloride is an inhibitor of TMPRSS2, a cofactor of SARS-CoV-2 entry, and one group reported that the drug was effective on COVID-19 patients in a clinical trial. To further investigate whether bromhexine hydrochloride could inhibit SARS-CoV-2 replication, viral RNA was measured by real-time RT-PCR using primer sets specific to N gene of SARS-CoV-2.
Fig. 4 Suppression of SARS-CoV-2 replication by bromhexine hydrochloride. Cellular RNAs were isolated from cells infected by SARS-COV-2 and treated with bromhexine hydrochloride. The level of viral RNA was measured by real-time RT-PCR using primer sets specific to N gene of SARS-CoV-2.

Vero cells = conditions: read-out: CC50 cell toxicity, MTS, no virus, compounds from secondary screening
[4] = Vero cells, MTS, no virus, compounds from primary screening
[5] = Vero cells, MTS, no virus, compounds from secondary screening
[6] = compounds from primary screening
[7] = compounds from secondary screening
[8] = Severe acute respiratory syndrome coronavirus 2, Vero, 24 h, Vero cells, MOI 2, 24 h post-infection, compounds from primary screening, 100 μM to 0.16 μM, read-out: IC50 antiviral activity
[9] = Severe acute respiratory syndrome coronavirus 2, Vero, 24 h, Vero cells, MOI 2, 24 h post-infection, compounds from secondary screening, 0.08–50 μM, read-out: IC50 antiviral activity
[10] = Severe acute respiratory syndrome coronavirus 2, Vero, 24 h, read-out: IC50 antiviral activity
[11] = Vero cells, MOI 2, 24 h post-infection, compounds from secondary screening, 0.08–50 μM, read-out: IC50 antiviral activity

SMILES | CC50 at 24 h (in vitro; [4]) | CC50 at 24 h (in vitro; [5]) | Selectivity Index (SI) (SARS-CoV-2 [2]; [6]) | Selectivity Index (SI) (SARS-CoV-2 [2]; [7]) | IC50 (SARS-CoV-2 [2]; [9]) | further results
CCC(CC)COC(=O)[C@H](C)N[P@](=O)(OC[C@H]1O[C@@](C#N)(c2ccc3c(N)ncnn23)[C@H](O)[C@@H]1O)Oc1ccccc1 [Remdesivir] | > 100 µM | > 50 µM | >20 | >10 | 5 µM | Inhibition of viral CPE (SARS-CoV-2 [1]): complete absence of CPE; IC50 (SARS-CoV-2 [2]; Severe acute respiratory syndrome coronavirus 2, Vero, 24 h, Vero cells, 2 MOI, 24 h post-infection, calibration of the assay with reference compound (Fig. 1), read-out: IC50 antiviral activity): 6 µM; IC50 (SARS-CoV-2 [2]; [8]): 5 µM
CN(C)C(=O)C(CCN1CCC(O)(c2ccc(Cl)cc2)CC1)(c1ccccc1)c1ccccc1 [Loperamide hydrochloride] |  | > 50 µM |  |  |  | 
CCCS(=O)(=O)Nc1ccc(F)c(C(=O)c2c[nH]c3ncc(-c4ccc(Cl)cc4)cc23)c1F [Vemurafenib (PLX4032), Vemurafenib] |  |  |  | >7.1 | 7 µM | CC50 at 24 h (in vitro): > 50 µM
Cc1ccc(-c2cc(C(F)(F)F)nn2-c2ccc(S(N)(=O)=O)cc2)cc1 [Celecoxib] | 74.8 µM |  | 4.3 |  |  | IC50 (SARS-CoV-2 [2]; [8]): 17.5 µM
Cc1ccc(NC(=O)c2ccc(CN3CCN(C)CC3)cc2)cc1Nc1nccc(-c2cccnc2)n1 [Imatinib] |  | > 50 µM |  |  |  | 
COC(=O)[C@H]1[C@H]2C[C@@H]3c4[nH]c5cc(OC)ccc5c4CCN3C[C@H]2C[C@@H](OC(=O)c2cc(OC)c(OC)c(OC)c2)[C@@H]1OC [Reserpine] |  | > 50 µM |  | >1.7 | 29.2 µM | 
C=C[C@H]1C[N@@]2CC[C@H]1C[C@@H]2[C@@H](O)c1ccnc2ccc(OC)cc12 [Quinidine gluconate] |  | > 50 µM |  | >2.1 | 24.2 µM | 
COc1ccc(CN2CCN(C(c3ccc(F)cc3)c3ccc(F)cc3)CC2)c(OC)c1OC [Lomerizine] |  |  | >7.8 |  |  | CC50 at 24 h (in vitro): > 100 µM; IC50 (SARS-CoV-2 [2]; [8]): 12.8 µM
Cc1ccc(NC(=O)c2ccc(CN3CCN(C)CC3)cc2)cc1Nc1nc(-c2cccnc2)cs1 [Masitinib] |  | 47.1 µM |  | 3.2 |  | IC50 (SARS-CoV-2 [2]; [10]): 14.9 µM
CCN(CC)Cc1cc(Nc2ccnc3cc(Cl)ccc23)ccc1O [Amodiaquine] | > 100 µM | > 50 µM | >17.2 | >10.9 | 4.6 µM | IC50 (SARS-CoV-2 [2]; [8]): 5.8 µM
CN1CCC(OC(c2ccccc2)c2ccccc2)CC1 [Diphenylpyraline hydrochloride] |  | > 50 µM |  | >1.2 | 42.4 µM | 
CCCCOc1cc(C(=O)NCCN(CC)CC)c2ccccc2n1 [Dibucaine hydrochloride] |  |  |  | >2.3 | 21.6 µM | CC50 at 24 h (in vitro): > 50 µM
O=C(CCCl)NCc1ccccc1 [Beclamide] | > 100 µM |  | >1.4 |  |  | IC50 (SARS-CoV-2 [2]; [10]): 72 µM
CC(C)(C)c1ccc(CN2CCN(C(c3ccccc3)c3ccc(Cl)cc3)CC2)cc1 (centres unmarked) [Buclizine] | > 100 µM |  | >5.1 |  |  | IC50 (SARS-CoV-2 [2]; [8]): 19.6 µM
CCOC(=O)C1=C[C@]2(CC)CCCN3CCc4c(n1c1ccccc41)[C@@H]32 [Vinpocetine] |  | > 50 µM |  | >5.8 | 8.6 µM | 
CN(Cc1cc(Br)cc(Br)c1N)C1CCCCC1 [Bromhexine hydrochloride] |  | > 50 µM |  | >3.5 |  | Level of intracellular viral RNA (SARS-CoV-2 [3]): effectively reduced the intracellular RNA; IC50 (SARS-CoV-2 [2]; [10]): 14.4 µM
CC(CN1c2ccccc2Sc2ccccc21)N(C)C (centres unmarked) [Promethazine hydrochloride] |  | > 50 µM |  | >2.6 | 19.1 µM | 
CCCCc1nc(Cl)c(CO)n1Cc1ccc(-c2ccccc2-c2nn[nH]n2)cc1 [Losartan] | > 100 µM |  | >1.4 |  |  | IC50 (SARS-CoV-2 [2]; [8]): 72 µM
CN1CCN(CCCN2c3ccccc3Sc3ccc(S(=O)(=O)N(C)C)cc32)CC1 [Thioproperazine dimesylate] |  |  |  |  |  | CC50 (Vero cells): 41 µM; IC50 (SARS-CoV-2 [2]; [11]): 13.4 µM
CC[C@@H](C(=O)[C@@H](C)[C@@H](O)[C@H](C)[C@@H]1O[C@@H]([C@@H](CC)C(=O)O)CC[C@@H]1C)[C@H]1O[C@]2(C=C[C@@H](O)[C@]3(CC[C@@](C)([C@H]4CC[C@](O)(CC)[C@H](C)O4)O3)O2)[C@H](C)C[C@@H]1C [Salinomycin] | 56.3 µM |  | 97.1 |  |  | IC50 (SARS-CoV-2 [2]; [10]): 0.58 µM
O=C(O)Cc1cc(I)c(Oc2ccc(O)c(I)c2)c(I)c1 [Tiratricol] |  | > 50 µM |  | >10.9 |  | IC50 (SARS-CoV-2 [2]; [10]): 4.6 µM
CN1CC2c3ccccc3Oc3ccc(Cl)cc3C2C1 (centres unmarked) [Asenapine] |  | > 50 µM |  |  |  | 
CCCCCOc1ccc(-c2cc(-c3ccc(C(=O)N[C@H]4C[C@@H](O)[C@@H](O)NC(=O)[C@@H]5[C@@H](O)[C@@H](C)CN5C(=O)[C@H]([C@H](O)CC(N)=O)NC(=O)[C@H]([C@H](O)[C@@H](O)c5ccc(O)c(OS(=O)(=O)O)c5)NC(=O)[C@@H]5C[C@@H](O)CN5C(=O)[C@H]([C@@H](C)O)NC4=O)cc3)no2)cc1 [Micafungin] (X1-[Orn(4R-OH,5R-OH)]T[Hyp][hTyr(3S-OH,4S-OH,3'-OSO3H)][Gln(3R-OH)][Pro(3S-OH,4S-Me)]; lactam 1-C) | > 100 µM | > 50 µM | >18.1 | >3.9 |  | IC50 (SARS-CoV-2 [2]; Severe acute respiratory syndrome coronavirus 2, Vero, 24 h, read-out: IC50 antiviral activity, Vero cells, MOI 2, 24 h post-infection, compounds from primary screening, 100 μM to 0.16 μM): 5.5 µM; IC50 (SARS-CoV-2 [2]; Severe acute respiratory syndrome coronavirus 2, Vero, 24 h, read-out: IC50 antiviral activity, Vero cells, MOI 2, 24 h post-infection, compounds from secondary screening, 0.08–50 μM): 12.9 µM
CC(C)N(CCCCOCC(=O)NS(C)(=O)=O)c1cnc(-c2ccccc2)c(-c2ccccc2)n1 [Selexipag] |  |  |  | >5.9 | 8.5 µM | CC50 at 24 h (in vitro): > 50 µM
Fc1ccc(C(c2ccc(F)cc2)N2CCN(C/C=C/c3ccccc3)CC2)cc1 [Flunarizine] | > 100 µM |  |  |  |  | 
Cc1cccc(CN2CCN(C(c3ccccc3)c3ccc(Cl)cc3)CC2)c1 (centres unmarked) [Meclizine] | > 100 µM |  | >17.9 |  |  | IC50 (SARS-CoV-2 [2]; [8]): 5.6 µM
C=C[C@@]1(C)CC(=O)[C@]2(O)[C@@]3(C)[C@@H](O)CCC(C)(C)[C@@H]3[C@H](OC(=O)CCN(C)C)[C@H](OC(C)=O)[C@@]2(C)O1 [NKH 477] |  |  |  |  |  | CC50 (Vero cells): > 50 µM; IC50 (SARS-CoV-2 [2]; [11]): 12.7 µM
CC1=NN(c2ccc(C)c(C)c2)C(=O)/C1=N\Nc1cccc(-c2cccc(C(=O)O)c2)c1O [Eltrombopag] |  | 43.8 µM |  | 21.9 | 2 µM | 
CCN(CC)C(C)CN1c2ccccc2Sc2ccccc21 (centres unmarked) [Ethopropazine hydrochloride] |  | > 50 µM |  | >2.5 | 20.3 µM | 
CC[C@H]1CN2CC[C@H]1C[C@@H]2[C@@H](O)c1ccnc2ccc(OC)cc12 [hydroquinidine] |  | > 50 µM |  | >2.1 | 23.8 µM | 
